Test results: article PMC4639830, “Inhibition of DYRK1A and GSK3B induces human β-cell proliferation” (Nature Communications, 2015)

Tests used:
[1] = tested on: human islets in STZ-treated NSG mice; assay: Human islets transplanted under kidney capsule of STZ-treated NSG mice, oral dosing; type: in vivo, mouse; settings: 50 mg kg^−1, twice daily, 9 days
Excerpt: All animal care and experimental procedures were approved by the Institutional Animal Care and Use Committee (IACUC) of Genomics Institute of the Novartis Research Foundation and strictly followed the NIH guidelines for humane treatment of animals. The double transgenic RIP-DTA male mice (Tg(Ins2-rtTA)2Efr Tg(teto-DTA)1Gfi/J; Jackson Laboratory, Stock # 008755) were bred in-house and were maintained in a 12-h light/12-dark cycle environment with controlled temperature, humidity and ventilation. Animals were housed 3–5 mice per cage and had free access to water and standard laboratory chow. […] Blood glucose levels were measured from tail-vein blood with a glucometer (AlphaTrak2 Monitoring System; Abbott). […] Body weight and blood glucose were monitored every third day. […] Pancreatic insulin content was determined by MSD (meso-scale discovery). […] Baseline body weight and tail-vein blood glucose measurements were recorded before diabetic induction. To obtain a diabetic state, animals were given an intraperitoneal dose of STZ (135 mg kg^−1) and blood glucose was monitored before transplant. […]
Human islets (obtained commercially from Prodo Laboratories Inc.) were recovered for 48 h before transplantation. […] While mice were prepared, islets were counted according to IEQs and prepared into islet suspension of 800 IEQ/mouse in cold PBS. […]

primary human islets = assay: TUNEL in β-cells; type: cell-based; settings: 4 days in the presence of EdU
Protocol: Supplementary Figure 2. […] (a-c) Primary human […]
for 4 days in the presence of EdU. […]
effects on TUNEL in EdU positive cells while CDK6 and Cyclin D1 increased TUNEL staining in EdU positive cells (consistent with previous reports) (n=3; mean ± SD). (d) Human islets were […]
for 16 hrs in the presence of EdU. Following treatment, cells were analyzed for TUNEL, and stained for insulin and DAPI.
TUNEL without EdU incorporation. […]
(1 picture or pasted object on this page, not shown here)

SYK = molecular target: T1, SYK (Homo sapiens, UniProt P43405); assay: Kinase profiling; type: biochemical; settings: read-out: Percent inhibition, SYK; for inhibition at 1 µM: Conc 1000 nM
T1 construct: purchased Ambit (KINOMEscan)
Excerpt: (§1) ; Fig. 5a; Supplementary Table 1). We focused on Dyrk1a because other kinases inhibited by aminopyrazine compounds were not highly expressed in β-cells and because Dyrk1a was known to inhibit the NFAT pathway that was previously implicated in β-cell proliferation. We used molecular modelling to dock the aminopyrazine compounds into the published structure of Dyrk1a (protein databank accession code 2vx3.pdb; Fig. 5b).

KDR (VEGFR2, FLK1) = molecular target: T2, KDR (VEGFR2, FLK1) (Homo sapiens, UniProt P35968); assay: Kinase profiling; type: biochemical; settings: read-out: Percent inhibition, KDR (VEGFR2, FLK1); for inhibition at 1 µM: Conc 1000 nM
T2 construct: purchased Ambit KINOMEscan
Excerpt: as §1

intact human islets = assay: Intact human islet assay (Ki67, cell numbers); type: cell-based; settings: 8 days
Protocol: Rat or human β-cell proliferation assays were performed using dissociated primary rat or human islets. Islets were treated with the indicated compounds in the presence of EdU for 4 days before fixing and staining. EdU incorporation was measured by click reaction with AlexaFluor-647-azide (Invitrogen). For intact islet assays, primary human islets were treated for 7 or 8 days (as indicated in the legend). Rat dissociated islets were cultured in RPMI medium containing 10% FBS and human dissociated islets were cultured in PIM-S media (Prodo laboratories) with 10% human […].

[2] = tested on: reversibly immortalized mouse beta (R7T1) cells; assay: R7T1 proliferation assay (CellTiter Glo); type: cell-based; settings: growth-arrested R7T1 cells
Protocol: Reversibly immortalized mouse β-cells (R7T1)[49] express SV40 T antigen under a tetracycline inducible promoter. R7T1 cells were expanded in the presence of doxycycline. For experiments on proliferation, R7T1 cells were growth arrested by removal of doxycycline for 2 days and plated into 384-well plates at a density of 3,000 cells per well in growth medium. β-Cell proliferation was assessed using CellTiter Glo (Promega) after 4 days. Fold increase in cell number was calculated by normalizing compound-treated wells to the median of DMSO-treated wells.

[3] = tested on: β-catenin nuclear localization in primary rat islets; assay: β-Catenin nuclear translocation; type: cell-based
Protocol: At the end of the treatment, cells were fixed with 4% paraformaldehyde, blocked and permeabilized, and stained by standard immunofluorescence techniques for β-catenin (Cell signaling, #9562L; dilution 1:500), NFATc1 (Santa Cruz, rabbit polyclonal, SC-7294; dilution 1:200) or NFAT3c (Santa Cruz, SC-8321; dilution 1:200) and nuclear DNA was stained with DAPI (Molecular Probes; dilution 1:1,000). EdU incorporation was measured by click reaction with AlexaFluor-647-azide (Invitrogen). Plates were imaged with confocal microscope and analysed by Metamorph (Molecular Devices).

GSK3beta = molecular target: T3, GSK3beta (Homo sapiens, UniProt P49841); assay: Kinase profiling; type: biochemical; settings: Conc 1000 nM; read-out: Percent inhibition, GSK3beta
T3 construct: purchased Ambit KINOMEscan

Dyrk1a = molecular target: T4, Dyrk1a (Homo sapiens, UniProt Q13627); assay: Kinase profiling; type: biochemical; settings: Conc 1000 nM; read-out: Percent inhibition, DYRK1a
T4 construct: purchased Ambit KINOMEscan

T2 sequence (P35968 20-1356): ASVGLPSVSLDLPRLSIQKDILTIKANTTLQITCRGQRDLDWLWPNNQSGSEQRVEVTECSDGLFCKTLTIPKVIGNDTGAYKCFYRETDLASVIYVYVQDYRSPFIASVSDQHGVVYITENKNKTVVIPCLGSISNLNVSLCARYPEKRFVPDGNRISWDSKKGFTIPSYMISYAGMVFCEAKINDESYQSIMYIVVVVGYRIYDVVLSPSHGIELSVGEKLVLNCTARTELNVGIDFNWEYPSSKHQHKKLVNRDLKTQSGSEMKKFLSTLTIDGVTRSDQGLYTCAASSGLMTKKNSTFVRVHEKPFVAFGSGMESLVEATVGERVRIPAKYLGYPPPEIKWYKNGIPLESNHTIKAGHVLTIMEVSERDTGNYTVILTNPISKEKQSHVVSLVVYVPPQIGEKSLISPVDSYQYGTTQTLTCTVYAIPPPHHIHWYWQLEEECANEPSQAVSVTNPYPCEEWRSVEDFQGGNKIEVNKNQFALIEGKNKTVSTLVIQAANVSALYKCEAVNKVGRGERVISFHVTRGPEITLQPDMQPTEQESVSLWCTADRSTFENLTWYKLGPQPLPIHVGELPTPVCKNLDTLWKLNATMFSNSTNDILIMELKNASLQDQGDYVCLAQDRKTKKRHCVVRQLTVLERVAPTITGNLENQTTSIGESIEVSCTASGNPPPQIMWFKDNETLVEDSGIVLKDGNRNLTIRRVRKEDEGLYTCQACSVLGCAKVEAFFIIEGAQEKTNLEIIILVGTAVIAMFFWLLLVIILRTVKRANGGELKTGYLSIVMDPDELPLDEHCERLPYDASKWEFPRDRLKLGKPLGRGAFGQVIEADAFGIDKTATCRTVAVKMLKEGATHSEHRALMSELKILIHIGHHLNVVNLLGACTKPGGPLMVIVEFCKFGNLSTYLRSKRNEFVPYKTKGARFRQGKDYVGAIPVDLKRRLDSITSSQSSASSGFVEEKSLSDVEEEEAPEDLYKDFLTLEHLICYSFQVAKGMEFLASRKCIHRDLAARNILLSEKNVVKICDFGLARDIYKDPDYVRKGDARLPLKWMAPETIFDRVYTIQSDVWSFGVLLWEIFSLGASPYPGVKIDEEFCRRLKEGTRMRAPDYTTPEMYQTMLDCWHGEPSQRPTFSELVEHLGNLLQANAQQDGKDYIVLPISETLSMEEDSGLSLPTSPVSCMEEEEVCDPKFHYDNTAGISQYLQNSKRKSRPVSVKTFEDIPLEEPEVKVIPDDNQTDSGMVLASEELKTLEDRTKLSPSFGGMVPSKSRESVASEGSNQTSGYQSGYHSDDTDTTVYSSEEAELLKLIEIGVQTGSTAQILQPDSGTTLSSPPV
T3 sequence (P49841 whole entry): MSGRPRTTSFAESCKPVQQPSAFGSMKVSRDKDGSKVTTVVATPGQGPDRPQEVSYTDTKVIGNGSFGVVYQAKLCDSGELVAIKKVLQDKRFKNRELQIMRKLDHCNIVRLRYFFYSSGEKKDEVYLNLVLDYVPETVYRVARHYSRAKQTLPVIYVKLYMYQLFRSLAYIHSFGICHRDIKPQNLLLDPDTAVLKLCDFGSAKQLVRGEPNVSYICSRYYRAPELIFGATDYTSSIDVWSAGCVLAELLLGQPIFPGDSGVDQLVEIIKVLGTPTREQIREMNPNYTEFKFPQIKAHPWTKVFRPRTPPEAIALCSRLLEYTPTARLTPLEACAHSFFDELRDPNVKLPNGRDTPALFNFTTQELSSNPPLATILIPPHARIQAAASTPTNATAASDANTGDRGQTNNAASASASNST

Compound	glucose control (fed glucose levels) [1]	TUNEL-positive β-cells (primary human islets)	inhibition at 0.2 µM (SYK; Conc 200 nM) [%]	inhibition at 1 µM (SYK) [%]	inhibition at 0.2 µM (KDR (VEGFR2, FLK1); Conc 200 nM) [%]	inhibition at 1 µM (KDR (VEGFR2, FLK1)) [%]	increase in the number of Ki67-positive insulin-positive cells (intact human islets) [fold]	EC50 [2] [µM]	β-catenin nuclear translocation [3]	inhibition at 1 µM (GSK3beta) [%]	inhibition at 1 µM (Dyrk1a) [%]
CC(C)Oc1ccc(F)c(-c2cnc(N)c(C(=O)Nc3cnccc3N3CCC[C@@H](C(=O)O)C3)n2)c1 [GNF4877]	trend towards improved glucose control	unchanged	89	95	6	101	20	0.66	–	–	–
Nc1ncc(-c2ccccc2)nc1C(=O)Nc1cnccc1N1CCC(C(=O)O)CC1 [GNF7156]	–	–	–	93	–	102	–	2.2	induced β-catenin nuclear translocation	99	98
